Marks after values point to notes of the source that are not given here.
Tests used:
Assay type in all cases: in vivo
[1] = test system: Puccinia recondite f. sp. tritici (the causal agent of wheat leaf rust); assay: Test A: wheat leaf rust, preventive spray on wheat seedlings, visual disease rating; conditions: wheat leaf rust, preventive spray on wheat seedlings
Procedure, shortened: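 This was a preventive test: Puccinia recondite f. sp. tritici inoculum was applied one day after compound spray to run-off. Test suspensions were made in 50/50 acetone/water with 250 ppm surfactant, at 200 ppm (800 g/ha equivalent) or 40 ppm. Visual ratings of % disease control relative to controls were made after 24 h of saturated humidity and 7 growth-chamber days, all at 20° C.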

[2] = test system: Septoria tritici (the causal agent of wheat leaf blotch); assay: Test B: wheat leaf blotch, preventive spray on wheat seedlings, visual disease rating; conditions: wheat leaf blotch, preventive spray on wheat seedlings
Procedure, shortened: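 Preventive test: Septoria tritici spores applied one day after run-off spraying of seedlings (200 ppm equals 800 g/ha; some tests 40 ppm). After 48 h at 24 °C saturated atmosphere and 19 days at 20 °C, disease scored visually as % control relative to untreated plants.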

[3] = test system: Botrytis cinerea (the causal agent of tomato Botrytis); assay: Test C: tomato Botrytis, preventive spray on tomato seedlings, visual disease rating; conditions: tomato Botrytis, preventive spray on tomato seedlings
Procedure, shortened: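 Preventive test: B. cinerea spore inoculation one day after tomato seedlings were sprayed to run-off with compound suspended in 50/50 acetone–water plus 250 ppm surfactant. Plants held 48 h at 20° C in saturated air, then 3 days at 24° C; visual ratings scored 100 (full control) to 0 versus controls; some entries used 40 ppm.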

[4] = test system: Blumeria graminis f. sp. tritici (also known as Erysiphe graminis f. sp. tritici, the causal agent of wheat powdery mildew); assay: Test D: wheat powdery mildew, preventive spray on wheat seedlings, visual disease rating; conditions: wheat powdery mildew, preventive spray on wheat seedlings
Procedure, shortened: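 Preventive test: seedlings sprayed to run-off and inoculated with powdery mildew spores one day later. Suspensions were made in 50/50 acetone/water with 250 ppm Trem 014 surfactant (200 ppm equals 800 g/ha). Visual ratings after 8 days at 20 °C give percent disease control versus controls.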

[5] = no asterisk (standard test suspension concentration, not 40 ppm)
[6] = asterisk: 40 ppm test suspension

SMILES	Test A rating (100 = 100% disease control, 0 = no disease control relative to the controls) [1, 5] [%]	Test B rating (100 = 100% disease control, 0 = no disease control relative to the controls) [2, 5] [%]	Test C rating (100 = 100% disease control, 0 = no disease control relative to the controls) [3, 5] [%]	Test D rating (100 = 100% disease control, 0 = no disease control relative to the controls) [4, 5] [%]	Test A rating (100 = 100% disease control, 0 = no disease control relative to the controls) [1, 6]	Test B rating (100 = 100% disease control, 0 = no disease control relative to the controls) [2, 6]	Test C rating (100 = 100% disease control, 0 = no disease control relative to the controls) [3, 6]	Test D rating (100 = 100% disease control, 0 = no disease control relative to the controls) [4, 6]
OC(c1ccc(F)cc1F)c1c(Cl)ncn1-c1ccc(F)cc1Cl (stereo not drawn) [Compound 2, 4-chloro-1-(2-chloro-4-fluorophenyl)-α-(2,4-difluorophenyl)-1H-imidazole-5-methanol]	100	100	100	81	–	–	–	–
COc1ccc(C(O)c2c(Br)nc(Cl)n2-c2ccc(F)cc2Cl)c(Cl)c1 (centres unmarked) [compound 358]	–	–	–	–	100* %	100* %	100* %	99* %
Cc1nc(Br)c(C(O)c2ccc(F)cc2Cl)n1-c1c(F)cccc1Br (centres unmarked) [compound 134]	100	100	100	98	–	–	–	–
COc1cc(F)c(C(O)c2c(Br)nc(C)n2-c2c(F)cccc2F)c(F)c1 (centres unmarked) [compound 147]	–	–	–	–	100* %	100* %	99* %	0* %
OC(c1c(F)cc(F)cc1F)c1c(Cl)nc(Cl)n1-c1ccc(Cl)cc1Cl (centres unmarked) [compound 90]	100	100	98	99	–	–	–	–
Cc1nc(Br)c(C(O)c2c(F)cc(F)cc2F)n1-c1ccc(Cl)cc1 (centres unmarked) [compound 353]	9	44	28	0	–	–	–	–
OC(c1ccc(Cl)cc1)c1c(Cl)nc(Cl)n1-c1c(F)cc(F)cc1Cl (racemic) [compound 39]	100	100	99	99	–	–	–	–
Cc1nc(Br)c(C(O)c2ccc(F)cc2Cl)n1-c1c(F)cccc1F (centres unmarked) [compound 99]	–	–	–	–	100* %	100* %	99* %	98* %
Cc1cc(F)ccc1C(O)c1c(Cl)nc(Cl)n1-c1ccc(Cl)cc1Cl (single isomer, unassigned) [compound 85]	99	100	88	87	–	–	–	–
COc1ccc(C(O)c2cnc(C)n2-c2ccc(F)cc2Br)c(Cl)c1 (centres unmarked) [compound 312]	–	–	–	–	28* %	12* %	0* %	0* %
Cc1nc(Cl)n(-c2c(F)cccc2Br)c1C(O)c1ccc(F)cc1Cl (centres unmarked) [compound 207]	–	–	–	–	100* %	100* %	100* %	81* %
Cc1nc(Br)c(C(O)c2ccc(F)cc2F)n1-c1c(F)cccc1F (centres unmarked) [compound 178]	–	–	–	–	100* %	100* %	96* %	64* %
Cc1ncc(C(O)c2c(F)cc(F)cc2F)n1-c1ccc(Cl)cc1Cl (centres unmarked) [compound 361]	95	15	9	0	–	–	–	–
Cc1nc(C)n(-c2c(F)cc(Cl)cc2F)c1C(O)c1ccc(F)cc1F (racemic) [compound 246]	–	–	–	–	100* %	100* %	37* %	0* %
Cc1cc(F)ccc1C(O)c1c(Cl)nc(C)n1-c1c(Cl)cccc1Cl (centres unmarked) [compound 366]	99	100	100	97	–	–	–	–
COc1cc(F)c(-n2c(C)nc(Cl)c2C(O)c2ccc(F)cc2C)c(F)c1 (centres unmarked) [compound 183]	–	–	–	–	86* %	100* %	8* %	0* %
COc1cc(OC)c(Br)c(-n2c(C)nc(Br)c2C(O)c2c(F)cc(F)cc2F)c1 (centres unmarked) [compound 203]	41	30	66	0	–	–	–	–
COc1ccc(C(O)c2c(Br)nc(C)n2-c2ccc(F)cc2F)c(Cl)c1 (racemic) [compound 285]	–	–	–	–	99* %	88* %	0* %	0* %
Cc1nc(Br)c(C(O)c2ccc(C#N)cc2F)n1-c1ccc(F)cc1Br (centres unmarked) [compound 326]	–	–	–	–	99* %	90* %	30* %	0* %
Cc1nc(Cl)n(-c2ccc(F)cc2Cl)c1C(O)c1ccc(F)cc1F (single isomer, unassigned) [compound 27]	100	100	100	99	–	–	–	–
